Laboratory results taken from patent US8501713B2, “Drug combinations for the treatment of duchenne muscular dystrophy” (Summit Corporation PLC, priority 2007, dated 2013).

Tested on: Utrophin A promoter linked to a luciferase reporter gene
Assay: Luciferase reporter assay (murine H2K cells)
Assay type: cell-based
Conditions: for activity at 10 µM: Mus musculus, H2K mdx, read-out: Activity
Protocol: 1. Luciferase Reporter Assay (Murine H2K Cells)
The cell line used for the screen is an immortalized mdx mouse H2K cell line that has been stably transfected with a plasmid containing […] fragment of the Utrophin A promoter including the first untranslated exon linked to a luciferase reporter gene. Under conditions of low temperature and interferon containing media, the cells remain as myoblasts. These are plated into 96 well plates and cultured in the presence of compound for three days. The level of luciferase is then determined by cell lysis and reading of the light output from the expressed luciferase gene utilising a plate luminometer.
H2K/mdx/Utro A reporter Cell Line Maintenance
The cells were grown at 33° C. in the presence of 10% CO2. To remove the myoblasts for platting, they were incubated with Trypsin EDTA until the monolayer started to detach.
The plates were then incubated at 33° C. in the presence of 10% CO2 for 24 hrs. Compounds were dosed by adding 10 μl of diluted compound to each well giving a final concentration of 10 μM. The plates were then incubated for a further 48 hrs. Cells were then lysed in situ following the manufacture's protocols (Promega Steady-Glo Luciferase Assay System (E2520). Then counted for 10 seconds using a plate luminometer (Victor1420).
Compounds for screening were stored at −20° C. as 10 mM stocks in 100% DMSO until required.
Biological activity as assessed using the luciferase reporter assay in murine H2K cells, and is classified as follows: […]

[1] = luciferase level relative to control, H2K/mdx/Utro A reporter cells, compound 10 μM final concentration
[2] = luciferase reporter assay in murine H2K cells, classified relative to control

Row | SMILES | activity at 10 µM [1] [%] | Activity [2] | also measured
1 | CCC(=O)N(C)c1ccc2oc(-c3ccc(Cl)cc3)nc2c1 [Example 219, N-(2-(4-chlorophenyl)benzo[d]oxazol-5-yl)-N-methylpropionamide] | 301 to 400 |  | 
2 | CCC(C)C(=O)Nc1ccc(-c2nc3ccccc3[nH]2)cc1 (centres unmarked) [Example 631] |  | ++++ (Above 401% relative to control) | 
3 | CCS(=O)(=O)c1ccc2oc(-c3ccc(Cl)c(Cl)c3)nc2c1 [Example 301, 2-(3,4-diChlorophenyl)-5-(ethylsulfonyl)benzo[d]oxazole] | 201 to 300 |  | 
4 | O=C(CSc1nc[nH]n1)Nc1ccc(-c2nc3ccccc3s2)cc1 [Example 685] |  | ++ (Between 201% and 300% relative to control) | 
5 | Cc1ccc(-c2nc3cc(N)ccc3s2)cc1 [Example 213, 2-p-tolylbenzo[d]thiazol-5-amine] | < 200 |  | 
6 | CC(C)C(=O)Nc1ccc2oc(-c3ccc(F)cc3Cl)nc2c1 [Example 340, N-(2-(2-chloro-4-fluorophenyl)benzo[d]oxazol-5-yl)isobutyramide] | > 401 |  | 
7 | CC(C)C(=O)Nc1ccc2oc(-c3ccc(Cl)cn3)nc2c1 [Example 270, N-(2-(5-chloropyridin-2-yl)benzo[d]oxazol-5-yl)isobutyramide] | > 401 |  | 
8 | Clc1ccc(OCc2nc3ccccc3[nH]2)c(Cl)c1 [Example 461] |  | +++ (Between 301% and 400% relative to control) | 
9 | COc1ccc(-c2nc3cc([N+](=O)[O-])ccc3o2)cc1OC [Example 537] |  | + (Up to 200% relative to control) | 
10 | CCCC(=O)Nc1ccc2oc(-c3ccc(C)cc3)nc2c1 [Example 116, N-(2-p-tolylbenzo[d]oxazol-5-yl)butyramide] | > 401 |  | 
11 | CCS(=O)(=O)c1ccc2oc(-c3ccc4sccc4c3)nc2c1 [Example 432, 2-(benzo[b]thiophen-5-yl)-5-(ethylsulfonyl)benzo[d]oxazole] | > 401 |  | 
12 | Nc1cc(-c2nc3ccccc3[nH]2)ccc1Cl [Example 653] |  | +++ (Between 301% and 400% relative to control) | 
13 | COc1ccc(-c2ccc3oc(-c4ccc(Cl)cc4)nc3c2)cn1 [Example 305, 2-(4-chlorophenyl)-5-(6-methoxypyridin-3-yl)benzo[d]oxazole] | 201 to 300 |  | 
14 | O=C(Nc1ccc2oc(-c3cccnc3)nc2c1)c1ccc(Cl)cc1 [Example 40, 4-chloro-N-(2-(pyridin-3-yl)benzo[d]oxazol-5-yl)benzamide] | < 200 |  | 
15 | Cc1ccc(-c2nc3c(N)cccc3o2)cc1 [Example 234, 2-p-tolylbenzo[d]oxazol-4-amine] | 301 to 400 |  | 
16 | CCS(=O)(=O)c1ccc2oc(-c3ccc4c(c3)OCO4)nc2c1 [Example 394, 2-(benzo[d][1,3]dioxol-5-yl)-5-(ethylsulfonyl)benzo[d]oxazole] | > 401 |  | 
17 | CNC(=O)c1ccc2oc(-c3ccc(Cl)cc3)nc2c1 [Example 279, 2-(4-chlorophenyl)-N-methylbenzo[d]oxazole-5-carboxamide] | 301 to 400 |  | 
18 | Cn1c(-c2ccc(Cl)cc2)nc2ccccc21 [Example 541] |  | ++ (Between 201% and 300% relative to control) | 
19 | CCN(CC)c1ccc(-c2nc3cc(S(=O)(=O)CC)ccc3o2)cc1 [Example 144, N,N-diethyl-4-(5-(ethylsulfonyl)benzo[d]oxazol-2-yl)aniline] | < 200 |  | 
20 | Cc1ccc(-c2nc3ccc(N)cc3o2)cc1 [Example 237, 2-p-tolylbenzo[d]oxazol-6-amine] | > 401 |  | 
21 | CC(=O)c1ccc2oc(-c3ccc(Cl)cc3)nc2c1 [Example 420, 1-(2-(4-chlorophenyl)benzo[d]oxazol-5-yl)ethanone] | > 401 |  | 
22 | Clc1ccc(-c2nc3cc4c(cc3o2)OCO4)cc1Cl [Example 361, 2-(3,4-chlorophenyl)-5,6-methylenedioxybenzoxazole] |  |  | Activity [1]: + (Up to 200% relative to control)

Row | SMILES | activity at 10 µM [1] [%] | Activity [2] | also measured
23 | CCC(=O)Nc1ccc2oc(-c3cccnc3)nc2c1 [Example 53, N-(2-(pyridin-3-yl)benzo[d]oxazol-5-yl)propionamide] | < 200 |  | 
24 | O=C(Nc1ccc2oc(-c3ccccc3)nc2c1)c1cccc2ccccc12 [Example 35, N-(2-phenylbenzo[d]oxazol-5-yl)-1-naphthamide] | < 200 |  | 
25 | Nc1ccc(O)c(-c2nc3cc(N)ccc3s2)c1 [Example 550] |  | + (Up to 200% relative to control) | 
26 | COc1ccccc1C(=O)Nc1ccc2oc(-c3cccnc3)nc2c1 [Example 43, 2-methoxy-N-(2-(pyridin-3-yl)benzo[d]oxazol-5-yl)benzamide] | < 200 |  | 
27 | Clc1ccc2nc(-c3ccccc3)oc2c1 [Example 112, 6-chloro-2-phenylbenzo[d]oxazole] | < 200 |  | 
28 | Clc1ccc(OCc2nc3ccccc3n2Cc2ccccc2Cl)c(Cl)c1 [Example 465] |  | + (Up to 200% relative to control) | 
29 | Nc1cnc2oc(-c3ccccc3)nc2c1 [Example 169, 2-phenyloxazolo[5,4-b]pyridin-6-amine] | < 200 |  | 
30 | O=C(Nc1ccc2oc(-c3ccccc3)nc2c1)c1cc(Cl)cc(Cl)c1 [Example 30, 3,5-dichloro-N-(2-phenylbenzo[d]oxazol-5-yl)benzamide] | < 200 |  | 
31 | NC(=O)c1ccc2oc(-c3ccc(Cl)cc3)nc2c1 [Example 264, 2-(4-chlorophenyl)benzo[d]oxazole-5-carboxamide] | > 401 |  | 
32 | O=C(Nc1ccc(-c2nc3ncccc3o2)cc1)c1ccccc1Cl [Example 641] |  | +++ (Between 301% and 400% relative to control) | 
33 | COc1ccc(C(=O)Nc2ccc3oc(-c4ccc(C)cc4)nc3c2)cc1 [Example 20, 4-methoxy-N-(2-p-tolylbenzo[d]oxazol-5-yl)benzamide] | < 200 |  | 
34 | Nc1ccc2oc(-c3ccc(N4CCOCC4)cc3)nc2c1 [Example 159, 2-(4-morpholinophenyl)benzo[d]oxazol-5-amine] | < 200 |  | 
35 | CCN(CC)c1ccc(-c2nc3cc(NC(=O)c4cccs4)ccc3o2)cc1 [Example 79, N-(2-(4-(diethylamino)phenyl)benzo[d]oxazol-5-yl)thiophene-2-carboxamide] | < 200 |  | 
36 | c1ccc(NNc2nc3ccccc3s2)cc1 [Example 552] |  | + (Up to 200% relative to control) | 
37 | CC(=O)Nc1ccc2[nH]c(-c3ccco3)nc2c1 [Example 534] |  | + (Up to 200% relative to control) | 
38 | c1ccc(OCc2nc3ccccc3[nH]2)cc1 [Example 471] |  | ++ (Between 201% and 300% relative to control) | 
39 | CCCCc1nc2cc(S(=O)(=O)CC)ccc2o1 [Example 570] |  | + (Up to 200% relative to control) | 
40 | Nc1ccc2nc(-c3ccc(-c4nc5ccc(N)cc5[nH]4)cc3)[nH]c2c1 [Example 476] |  | + (Up to 200% relative to control) | 
41 | c1ccc2sc(-c3ccc4c(c3)OCO4)nc2c1 [Example 608] |  | ++++ (Above 401% relative to control) | 
42 | CC(C)C(=O)Nc1ccc2[nH]c(-c3ccc(Cl)cc3)nc2c1 [Example 195, N-(2-(4-chlorophenyl)-1H-benzo[d]imidazol-5-yl)isobutyramide] | 201 to 300 |  | 
43 | CCS(=O)(=O)c1ccc(-c2ccc3oc(-c4ccc(Cl)cc4)nc3c2)cc1 [Example 269, 2-(4-chlorophenyl)-5-(4-(ethylsulfonyl)phenyl)benzo[d]oxazole] | < 200 |  | 
44 | Cc1cc(-c2nc3cc(Cl)ccc3o2)ccc1[N+](=O)[O-] [Example 539] |  | + (Up to 200% relative to control) | 
